Results taken from patent US10023592B2, “Bromodomain inhibitors” (Celgene Quanticel Research, Inc., priority 2013, dated 2018).
Counter-ions that a name gives are not always drawn.

Biological target: BRD4(BD1) (Homo sapiens (Human), UniProt O60885)
Experiment: In vitro enzyme inhibition assay (BRD4 AlphaScreen)
Format: binding
Settings: class symbols A/B/C
Description: His-tagged BRD4 was cloned, expressed and purified to homogeneity. […] BRD4 binding and inhibition was assessed by monitoring the interaction of biotinylated H4-tetraacetyl peptide (AnaSpec, H4K5/8/12/16(Ac), biotin-labeled) with the target using the AlphaScreen technology (Life Technologies). […] After 20 min incubation at room temp, Alpha streptavidin donor beads and Nickel Chelate acceptor beads were added to a final concentration of 5 μg/mL.
The ability of the compounds disclosed herein to inhibit BRD4 activity was quantified and the respective IC50 value was determined.

`Cc1cc(=O)n(C)cc1-c1cccc(NS(C)(=O)=O)c1` [Example 95, N-[3-(1,4-dimethyl-6-oxopyridin-3-yl)phenyl]methanesulfonamide] and `Cc1cc(-c2cccc(NS(C)(=O)=O)c2)cn(C)c1=O` [Example 96, N-[3-(1,5-dimethyl-6-oxopyridin-3-yl)phenyl]methanesulfonamide] fall in the same range of IC50: 500 to 5000 nM for the first, 500 to 5000 nM for the second.

Compared with `Cn1cc(-c2ccn[nH]2)c2ccccc2c1=O` [Example 68, 2-methyl-4-(1H-pyrazol-5-yl)isoquinolin-1-one], `CNc1cccc(-c2cn(C)c(=O)c3ccccc23)c1` [Example 32, 2-methyl-4-[3-(methylamino)phenyl]isoquinolin-1-one Hydrochloride] is lower in IC50: > 5000 nM for the first, 500 to 5000 nM for the second.

`CCS(=O)(=O)c1cccc(-c2cn(C)c(=O)c(N)n2)c1` [Example 105, 3-amino-5-(3-ethylsulfonylphenyl)-1-methylpyrazin-2-one] and `Cn1cc(-c2cccc(S(C)(=O)=O)c2)nc(N)c1=O` [Example 104, 3-amino-1-methyl-5-(3-methylsulfonylphenyl)pyrazin-2-one] cannot be ordered by IC50: > 5000 nM for the first, > 5000 nM for the second.

`Cn1cc(-c2cccc(S(=O)(=O)N3CCOCC3)c2)c2ccccc2c1=O` [Example 14, 2-methyl-4-(3-morpholin-4-yl-sulfonylphenyl) isoquinolin-1-one] and `Cn1cc(-c2cccc(S(=O)(=O)NC3CC3)c2)c2ccccc2c1=O` [Example 6, N-cyclopropyl-3-(2-methyl-1-oxoisoquinolin-4-yl) benzenesulfonamide] fall in the same range of IC50: 500 to 5000 nM for the first, 500 to 5000 nM for the second.

First: Cn1cc(-c2cccc(NS(C)(=O)=O)c2)c2cnccc2c1=O [Example 125, N-[3-(2-methyl-1-oxo-2,6-naphthyridin-4-yl)phenyl] methanesulfonamide]
Second: Cn1cc(-c2cccc(S(N)(=O)=O)c2)c2ccncc2c1=O [Example 55, 3-(2-methyl-1-oxo-2,7-naphthyridin-4-yl) benzenesulfonamide]
The IC50 of the first is lower: 500 to 5000 nM for the first, > 5000 nM for the second. The first is the more potent here.

`CCNc1cc(-c2ccc(OC)c(NS(C)(=O)=O)c2)cn(C)c1=O` [Example 111, N-[5-[5-(ethylamino)-1-methyl-6-oxopyridin-3-yl]-2-methoxyphenyl]methanesulfonamide] was tested, and the IC50 was 500 to 5000 nM.

Same assay, conditions: in vitro enzyme inhibition assay

First: CC(C)c1cc(-c2nc(S(C)(=O)=O)ncc2Oc2ccc(F)cc2F)cn(C)c1=O [Example 273, 5-[5-(2,4-difluorophenoxy)-2-methylsulfonylpyrimidin-4-yl]-1-methyl-3-propan-2-ylpyridin-2-one]
Second: CCS(=O)(=O)Nc1ncc(Oc2ccc(F)cc2F)c(-c2cc(C(C)C)c(=O)n(C)c2)n1 [Example 514, N-[5-(2,4-difluorophenoxy)-4-(1-methyl-6-oxo-5-propan-2-ylpyridin-3-yl)pyrimidin-2-yl]ethanesulfonamide]
The IC50 of the first is higher: 500 to 5000 nM for the first, < 500 nM for the second.

`CCCc1ccc(S(C)(=O)=O)cc1-c1cn(C)c(=O)c2ccccc12` [Example 314, 2-methyl-4-(5-methylsulfonyl-2-propylphenyl)isoquinolin-1-one] and `CCCCc1ccc(S(C)(=O)=O)cc1-c1cn(C)c(=O)c2ccccc12` [Example 318, 4-(2-butyl-5-methylsulfonylphenyl)-2-methylisoquinolin-1-one] cannot be ordered by IC50: < 500 nM for the first, < 500 nM for the second.

Compared with `Cn1cc(-c2cc(NS(C)(=O)=O)ccc2Oc2ccc(F)cc2F)c2c(c1=O)CCC2` [Example 506, N-[4-(2,4-difluorophenoxy)-3-(2-methyl-1-oxo-6,7-dihydro-5H-cyclopenta[c]pyridin-4-yl)phenyl]methanesulfonamide], `CCS(=O)(=O)c1ccc(Oc2ccc(F)cc2F)c(-c2cc(C(F)(F)F)c(=O)n(C)c2)c1` [Example 392, 5-[2-(2,4-difluorophenoxy)-5-ethylsulfonylphenyl]-1-methyl-3-(trifluoromethyl)pyridin-2-one] is higher in IC50: < 500 nM for the first, 500 to 5000 nM for the second. The first is the more potent here.

Compared with `CCS(=O)(=O)Nc1cc(-c2ccc(=O)n(C)c2)c(-c2ccccc2C)s1` [Example 432, N-[4-(1-methyl-6-oxopyridin-3-yl)-5-(2-methylphenyl)thiophen-2-yl]ethanesulfonamide], `CCC1CCc2cc(NS(=O)(=O)CC)cc(-c3cn(C)c(=O)c4ccccc34)c2O1` (centres unmarked) [Example 491, N-[2-ethyl-8-(2-methyl-1-oxoisoquinolin-4-yl)-3,4-dihydro-2H-chromen-6-yl]ethanesulfonamide] is lower in IC50: > 5000 nM for the first, < 500 nM for the second. The second is the more potent here.

`CCCc1cnc(NS(=O)(=O)CC)nc1-c1cc(OC)c(=O)n(C)c1` [Example 361, N-[4-(5-methoxy-1-methyl-6-oxopyridin-3-yl)-5-propylpyrimidin-2-yl]ethanesulfonamide] and `CCCCc1cnc(NS(=O)(=O)CC)nc1-c1cc(OC)c(=O)n(C)c1` [Example 362, N-[5-butyl-4-(5-methoxy-1-methyl-6-oxopyridin-3-yl)pyrimidin-2-yl]ethanesulfonamide] cannot be ordered by IC50: < 500 nM for the first, < 500 nM for the second.

`CCCc1cnc(NS(=O)(=O)CC)nc1-c1cc(Cl)c(=O)n(C)c1` [Example 359, N-[4-(5-chloro-1-methyl-6-oxopyridin-3-yl)-5-propylpyrimidin-2-yl]ethanesulfonamide] and `CCCCn1cc(-c2nc(NS(C)(=O)=O)ncc2Oc2ccc(F)cc2F)cc(C)c1=O` [Example 296, N-[4-(1-butyl-5-methyl-6-oxopyridin-3-yl)-5-(2,4-difluorophenoxy)pyrimidin-2-yl]methanesulfonamide] cannot be ordered by IC50: < 500 nM for the first, < 500 nM for the second.

First: CCS(=O)(=O)c1ccc(OCC2CC2)c(-c2cc(N3CCCC3)c(=O)n(C)c2)c1 [Example 282, 5-[2-(cyclopropylmethoxy)-5-ethylsulfonylphenyl]-1-methyl-3-pyrrolidin-1-ylpyridin-2-one]
Second: CCS(=O)(=O)c1ccc(OCC2CC2)c(-c2cc(NC)c(=O)n(C)c2)c1 [Example 409, 5-[2-(cyclopropylmethoxy)-5-ethylsulfonylphenyl]-1-methyl-3-(methylamino)pyridin-2-one]
The IC50 of the first is higher: 500 to 5000 nM for the first, < 500 nM for the second. The second is the more potent here.

Compared with `Cc1cc(-c2cc(S(C)(=O)=O)ccc2O[C@H]2CC[C@@H](N)CC2)cn(C)c1=O` [Example 403, 5-[2-(cis-4-aminocyclohexyl)oxy-5-methylsulfonylphenyl]-1,3-dimethylpyridin-2-one], `C#Cc1cc(-c2cc(S(C)(=O)=O)ccc2OCC2CC2)cn(C)c1=O` [Example 285, 5-[2-(cyclopropylmethoxy)-5-methylsulfonylphenyl]-3-ethynyl-1-methylpyridin-2-one] is higher in IC50: < 500 nM for the first, 500 to 5000 nM for the second.

`COc1ccc2c(=O)n(C)cc(-c3cc(S(=O)(=O)C(C)C)ccc3OCC3CC3)c2c1` [Example 393, 4-[2-(cyclopropylmethoxy)-5-propan-2-ylsulfonylphenyl]-6-methoxy-2-methylisoquinolin-1-one] and `Cn1cc(-c2cc(OCC3CC3)cc(S(C)(=O)=O)c2)c2ccccc2c1=O` [Example 345, 4-[3-(cyclopropylmethoxy)-5-methylsulfonylphenyl]-2-methylisoquinolin-1-one] cannot be ordered by IC50: < 500 nM for the first, < 500 nM for the second.

`Cn1cc(-c2cc(S(C)(=O)=O)cc3c2OC(C2CC2)C3)c2ccccc2c1=O` (centres unmarked) [Example 493, 4-(2-cyclopropyl-5-methylsulfonyl-2,3-dihydro-1-benzofuran-7-yl)-2-methylisoquinolin-1-one] and `Cn1cc(-c2cc(OCc3ccccc3)cc(S(C)(=O)=O)c2)c2ccccc2c1=O` [Example 344, 2-methyl-4-(3-methylsulfonyl-5-phenylmethoxyphenyl)isoquinolin-1-one] cannot be ordered by IC50: < 500 nM for the first, < 500 nM for the second.

Compared with `Cc1cc(-c2cc(OCC3(C)COC3)cc(S(C)(=O)=O)c2)cn(C)c1=O` [Example 329, 1,3-dimethyl-5-[3-[(3-methyloxetan-3-yl)methoxy]-5-methylsulfonylphenyl]pyridin-2-one], `Cc1cc(-c2cc(S(C)(=O)=O)cc3c2OCCO3)cn(C)c1=O` [Example 489, 1,3-dimethyl-5-(7-methylsulfonyl-2,3-dihydro-1,4-benzodioxin-5-yl)pyridin-2-one] is higher in IC50: < 500 nM for the first, 500 to 5000 nM for the second.

`CCC(=O)Nc1cc(-c2cccc(NS(C)(=O)=O)c2)cn(C)c1=O` [Example 481, N-[5-[3-(methanesulfonamido)phenyl]-1-methyl-2-oxopyridin-3-yl]propanamide] and `CC(=O)Nc1nc(-c2cccc(NS(C)(=O)=O)c2)cn(C)c1=O` [Example 478, N-[6-[3-(methanesulfonamido)phenyl]-4-methyl-3-oxopyrazin-2-yl]acetamide] cannot be ordered by IC50: > 5000 nM for the first, > 5000 nM for the second.

`Cn1cc(-c2nc(N3CCCS3(=O)=O)ncc2OCC2CC2)c2ccccc2c1=O` [Example 156, 4-[5-(cyclopropylmethoxy)-2-(1,1-dioxo-1,2-thiazolidin-2-yl)pyrimidin-4-yl]-2-methylisoquinolin-1-one] and `Cn1cc(-c2cc(CS(C)(=O)=O)ccc2OCC(F)(F)F)c2ocnc2c1=O` [Example 239, 5-methyl-7-[5-(methylsulfonylmethyl)-2-(2,2,2-trifluoroethoxy)phenyl]-[1,3]oxazolo[4,5-c]pyridin-4-one] cannot be ordered by IC50: < 500 nM for the first, < 500 nM for the second.

First: CCC1CCc2cc(NS(=O)(=O)CC)cc(-c3cc(C)c(=O)n(C)c3)c2O1 (centres unmarked) [Example 492, N-[8-(1,5-dimethyl-6-oxopyridin-3-yl)-2-ethyl-3,4-dihydro-2H-chromen-6-yl] ethanesulfonamide]
Second: CCS(=O)(=O)Cc1ccc(OCC(F)(F)F)c(-c2cc(C)c(=O)n(CCO)c2)c1 [Example 407, 5-[5-(ethylsulfonylmethyl)-2-(2,2,2-trifluoroethoxy)phenyl]-1-(2-hydroxyethyl)-3-methylpyridin-2-one]
The IC50 of the first is lower: < 500 nM for the first, 500 to 5000 nM for the second. The first is the more potent here.

Compared with `Cn1cc(-c2cccc(NS(C)(=O)=O)c2)cc(OCc2ccccc2)c1=O` [Example 471, N-[3-(1-methyl-6-oxo-5-phenylmethoxypyridin-3-yl)phenyl]methanesulfonamide], `Cn1cc(-c2cc(S(C)(=O)=O)ccc2CCC2CC2)ccc1=O` [Example 315, 5-[2-(2-cyclopropylethyl)-5-methylsulfonylphenyl]-1-methylpyridin-2-one] is lower in IC50: > 5000 nM for the first, < 500 nM for the second.
